Measured values taken from patent US20100210602A1, “PhoU (PerF), A P[…] INVOLVED IN [sequence] FORMATION AND TOLERANCE TO MULTIPLE ANTIBIOTICS AND [sequence] AS A DRUG TARGET FOR [sequence] BACTERIA” (priority 2006, published 2010).
Values after ≈ are worked out from the molar mass of the structure shown. Read-outs that look alike come from different tables or passages of the source.

How the values were obtained:
Assay type in all cases: cell-based, M. tuberculosis
PhoY1 mutant [1] = system: PhoY1 mutant
PhoY2 mutant [2] = system: PhoY2 mutant
PhoY2 mutant [3] = system: PhoY2 mutant; remark: listed apart in the source
PhoY1 mutant [4] = system: PhoY1 mutant; remark: listed apart in the source
PhoY2 mutant [5] = system: PhoY2 mutant; remark: listed apart in the source
PhoY1 mutant [6] = system: PhoY1 mutant; remark: listed apart in the source

SMILES | PhoY1 MIC (PhoY1 mutant [1]) [µg/mL] | PhoY2 MIC (PhoY2 mutant [2]) [µg/mL] | MBC (PhoY2 mutant [3]; pH 5.9) [µg/mL] | MIC (PhoY2 mutant [3]; pH 5.9) [µg/mL] | PhoY1 MIC (PhoY1 mutant [1]; pH 5.6) [µg/mL] | CFU/ml 3 day (PhoY1 mutant [4]; 200 μg/ml) | CFU/ml 9 day (PhoY1 mutant [4]; 200 μg/ml) | CFU/ml 3 day (PhoY2 mutant [5]; 200 μg/ml) | CFU/ml 9 day (PhoY2 mutant [5]; 200 μg/ml) | MBC (PhoY1 mutant [6]; pH 5.9) [µg/mL] | MIC (PhoY1 mutant [6]; pH 5.9) [µg/mL] | PhoY2 MIC (PhoY2 mutant [2]; pH 5.6) [µg/mL] | MBC (PhoY2 mutant [3]) [µg/mL] | MIC (PhoY2 mutant [3]) [µg/mL] | CFU/ml 3 day (PhoY1 mutant [4]; 8 μg/ml) | CFU/ml 9 day (PhoY1 mutant [4]; 8 μg/ml) | CFU/ml 3 day (PhoY2 mutant [5]; 8 μg/ml) | CFU/ml 9 day (PhoY2 mutant [5]; 8 μg/ml) | MBC (PhoY1 mutant [6]) [µg/mL] | MIC (PhoY1 mutant [6]) [µg/mL]
NNC(=O)c1ccncc1 [INH, isoniazid] | 0.1 | 0.1 |  |  |  |  |  |  |  |  |  |  |  |  |  |  |  |  |  | 
NC(=O)c1cnccn1 [PZA, pyrazinamide] |  |  | 400 (≈ 3250 µM) | 100 (≈ 812 µM) | 200 | 4.3 × 10^5 CFU/ml | 3.3 × 10^3 CFU/ml | 4.83 × 10^5 CFU/ml | <10^2 CFU/ml | 400 (≈ 3250 µM) | 200 (≈ 1620 µM) | 100 |  |  |  |  |  |  |  | 
CO[C@H]1/C=C/O[C@@]2(C)Oc3c(C)c(O)c4c(O)c(c(/C=N/N5CCN(C)CC5)c(O)c4c3C2=O)NC(=O)/C(C)=C\C=C\[C@H](C)[C@H](O)[C@@H](C)[C@@H](O)[C@@H](C)[C@H](OC(C)=O)[C@@H]1C [RIF, rifampin] | 0.1 | 0.1 |  |  |  |  |  |  |  |  |  |  | 0.05 (≈ 0.0608 µM) | 0.025 (≈ 0.0304 µM) | 4.97 × 10^5 CFU/ml | 3.13 × 10^4 CFU/ml | 2.27 × 10^5 CFU/ml | <10^2 CFU/ml | 0.2 (≈ 0.243 µM) | 0.05 (≈ 0.0608 µM)
